The test system of assay [1] is Bacillus subtilis. Briefly: Antibacterial activity against Bacillus subtilis. It counts as functional, organism-based.
Assay [2] has as its system Candida albicans. The assay can be described thus: Antifungal activity against Candida albicans. It counts as functional, organism-based.
The test system of assay [3] is Penicillium chrysogenum. Briefly: Antifungal activity against Penicillium chrysogenum. It counts as functional, organism-based.
Assay [4] has as its target Human immunodeficiency virus type 1 reverse transcriptase (Human immunodeficiency virus 1) (UniProt Q72547). The assay can be described thus: Inhibition of Human immunodeficiency virus 1 RT assessed at 20 ug after 1 hr by spectrophotometric analysis.
In assay [5] the test system is Aspergillus fumigatus. The assay can be described thus: Antifungal activity against Aspergillus fumigatus. Type of assay: functional, organism-based.
Assay [6] deals with Salmonella typhi. The assay can be described thus: Antibacterial activity against Salmonella enterica subsp. enterica serovar Typhi. It counts as functional, organism-based.
In assay [7] the test system is Aspergillus niger. Briefly: Antifungal activity against Aspergillus niger. Type of assay: functional, organism-based.

The structures appear in SMILES notation. The source made the active and inactive calls. The rule behind the calls is not given here.

For orientation: inhibition means how much of the control response was suppressed. High values mean strong suppression, low ones little suppression.

`CCOC(=O)/C(O)=C/C(=O)c1cn(Cc2ccc(Cl)cc2Cl)c2cc(OC)cc(OC)c12`: the result in assay [1], in assay [2] and in assay [3] was Active. In assay [4], this compound gave an inhibition of 87.6%.
In assay [4], `COc1cc2c(C(=O)/C=C(\O)C(=O)O)cn(Cc3ccc(Cl)cc3Cl)c2cc1OC` showed an inhibition of 78.6%.
Take `CC(=O)N1CCN(c2ccc(OCC3COC(Cn4ccnc4)(c4ccc(Cl)cc4Cl)O3)cc2)CC1` (centres undefined): the outcome in assay [2] and in assay [5] was Active.
For `CCOC(=O)/C(O)=C/C(=O)c1cn(Cc2ccc(Cl)cc2Cl)c2c(OC)ccc(OC)c12`, the outcome in assay [6], in assay [7], in assay [2], in assay [3] and in assay [5] was Active. Further, the inhibition in assay [4] stood at 86.5%.
In the case of `CCOC(=O)/C(O)=C/C(=O)c1cn(Cc2ccc(Cl)cc2Cl)c2ccc(OC)c(OC)c12`, the result in assay [1], in assay [7] and in assay [3] was Active. In assay [4], the inhibition stood at 87.7%.
Regarding `COc1ccc(OC)c2c1c(C(=O)/C=C(\O)C(=O)O)cn2Cc1ccc(Cl)cc1Cl`, in assay [4], the inhibition came out at 82.8%.
Turning to `COc1ccc2c(c(C(=O)/C=C(\O)C(=O)O)cn2Cc2ccc(Cl)cc2Cl)c1OC`, the inhibition in assay [4] came out at 78.2%.
In assay [4], `COc1cc(OC)c2c(C(=O)/C=C(\O)C(=O)O)cn(Cc3ccc(Cl)cc3Cl)c2c1` yielded an inhibition of 79.2%.
On to `CCOC(=O)/C(O)=C/C(=O)c1cn(Cc2ccc(Cl)cc2Cl)c2cc(OC)c(OC)cc12`, for which the result in assay [1], in assay [2] and in assay [5] was Active. Also, the inhibition in assay [4] amounted to 80.9%.
